From patent US11912668B2, “GCN2 and perk kinase inhibitors and methods of use thereof” (Deciphera Pharmaceuticals, LLC, priority 2020, dated 2024)

Legend:
[1] = test system: ATF4 in H929 multiple myeloma cells; experiment: H929 ATF4 ELISA assay (stimulation of cellular ATF4); type: cell-based; details: 4 h, no thapsigargin
Description: H929 multiple myeloma cells (catalog #CRL-9068) were obtained from the American Type Culture Collection (ATTC, Manassas, VA). Briefly, cells were grown in RPMI-1640 medium supplemented with 20% heat-inactivated fetal bovine serum (catalog #A3840002, ThermoFisher Scientific, Waltham, MA), 1% Penicillin/Streptomycin/L-Glutamine (catalog #10378016, ThermoFisher Scientific, Waltham, MA), and 0.05 mM 2-mercaptoethanol (catalog #21985-023, ThermoFisher Scientific, Waltham, MA) at 37° C., 5% CO2, and 95% humidity. Cells were expanded until reaching one million five hundred thousand cells per mL at which time they were subcultured or harvested for assay use. One million five hundred thousand cells per well in 1 mL complete growth medium were dispensed into 12-well plates and incubated overnight. A serial dilution of test compound was added, and cells were incubated at 37° C., 5% CO2, and 95% for four hours. Cells were lysed then ATF4 levels were measured using an ELISA assay (Proteintech, Rosemont, IL). Absorbance is measured at 450 nm and 544 nM using a Synergy2 or equivalent reader (Biotek, Winooski VT). Data were analyzed using PRISM software (Graphpad, San Diego, CA) to calculate fold stimulation of cellular ATF4 relative to vehicle treated control.

GCN2 kinase = GCN2 kinase (Homo sapiens (Human), UniProt Q9P2K8); experiment: Biochemical assay for GCN2 (TR-FRET kinase activity assay); details: 1 mM ATP, 3-hour incubation
Summary of the method: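 TR-FRET assay with 2 nM GCN2, 130 nM GFP-eIF2α substrate, 0.2 mg/mL E. coli tRNA and 1 mM ATP; compounds (0.5% DMSO) reacted 3 h. Stopped with 20 mM EDTA plus 2 nM Tb-anti-peIF2α (pSer52), 60 min RT; 520/490 ratio converted to % inhibition, IC50 from four-parameter fit.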

[2] = test system: ATF4 in CCRF-CEM leukemia cells (PERK); experiment: CCRF-CEM TG ATF4 ELISA, phenotypic assay for cellular inhibition of PERK preactivated by thapsigargin; type: cell-based; details: Homo sapiens; Thapsigargin (1 μM) stimulated CCRF-CEM cells

Chain of GCN2 kinase (Q9P2K8 whole entry): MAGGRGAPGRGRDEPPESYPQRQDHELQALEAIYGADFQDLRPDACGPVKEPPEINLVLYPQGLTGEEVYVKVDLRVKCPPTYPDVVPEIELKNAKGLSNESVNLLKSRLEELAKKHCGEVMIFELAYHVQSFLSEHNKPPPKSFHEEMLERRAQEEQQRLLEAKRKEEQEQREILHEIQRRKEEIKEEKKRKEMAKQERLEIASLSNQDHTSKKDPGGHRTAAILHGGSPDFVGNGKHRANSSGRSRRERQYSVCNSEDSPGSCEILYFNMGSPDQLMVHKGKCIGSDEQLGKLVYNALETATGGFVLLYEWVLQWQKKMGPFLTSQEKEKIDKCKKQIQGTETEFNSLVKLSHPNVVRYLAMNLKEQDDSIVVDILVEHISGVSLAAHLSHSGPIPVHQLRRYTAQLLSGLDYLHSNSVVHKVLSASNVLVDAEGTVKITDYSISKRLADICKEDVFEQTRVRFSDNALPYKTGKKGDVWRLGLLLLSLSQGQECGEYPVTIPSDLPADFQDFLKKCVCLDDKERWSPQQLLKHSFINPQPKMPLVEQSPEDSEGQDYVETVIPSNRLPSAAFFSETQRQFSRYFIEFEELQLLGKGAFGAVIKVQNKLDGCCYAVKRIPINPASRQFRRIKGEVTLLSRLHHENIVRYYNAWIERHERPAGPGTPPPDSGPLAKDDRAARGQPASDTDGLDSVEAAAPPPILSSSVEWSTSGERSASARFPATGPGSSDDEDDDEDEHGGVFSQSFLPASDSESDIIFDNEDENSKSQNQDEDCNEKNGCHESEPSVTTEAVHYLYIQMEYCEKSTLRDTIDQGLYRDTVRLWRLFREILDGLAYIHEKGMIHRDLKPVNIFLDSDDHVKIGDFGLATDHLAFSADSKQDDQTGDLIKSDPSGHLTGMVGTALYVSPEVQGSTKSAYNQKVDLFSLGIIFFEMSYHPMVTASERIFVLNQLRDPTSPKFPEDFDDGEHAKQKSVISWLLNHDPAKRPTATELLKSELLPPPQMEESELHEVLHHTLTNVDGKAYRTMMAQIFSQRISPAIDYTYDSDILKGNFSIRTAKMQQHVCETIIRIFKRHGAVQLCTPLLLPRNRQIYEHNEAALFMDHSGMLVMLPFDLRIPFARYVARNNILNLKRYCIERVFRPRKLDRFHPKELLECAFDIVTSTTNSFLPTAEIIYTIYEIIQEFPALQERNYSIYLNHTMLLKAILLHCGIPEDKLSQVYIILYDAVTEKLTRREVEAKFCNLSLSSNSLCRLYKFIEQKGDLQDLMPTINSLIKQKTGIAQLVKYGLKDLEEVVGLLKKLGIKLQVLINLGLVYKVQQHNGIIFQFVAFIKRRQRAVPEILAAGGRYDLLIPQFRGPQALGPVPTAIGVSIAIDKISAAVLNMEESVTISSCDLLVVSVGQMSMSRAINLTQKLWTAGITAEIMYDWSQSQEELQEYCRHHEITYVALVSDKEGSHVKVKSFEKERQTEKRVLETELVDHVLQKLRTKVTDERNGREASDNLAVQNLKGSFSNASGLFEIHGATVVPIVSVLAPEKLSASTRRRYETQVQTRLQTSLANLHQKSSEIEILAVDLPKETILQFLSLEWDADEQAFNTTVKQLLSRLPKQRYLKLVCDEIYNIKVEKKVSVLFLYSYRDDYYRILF

For `CNc1ncc2cc(-c3cccc(NS(=O)(=O)c4cc(Cl)cnc4OC)c3F)c(NC)nc2n1` [Compound 16], the “H929 NS ATF4 ELISA (fold stimulation of ATF4 relative to vehicle)” value [1] was “+++ (“+++” refers to an ATF4 stim greater than 10 fold and less than or equal to 20 fold)”, the IC50 (GCN2 kinase) was at most 100 nM and the IC50 [2] was 1000 to 10000 nM.
